Data reported in patent publication US20230277669A1, “USES OF UROLITHINS” (Amazentis SA, priority 2022, published 2023).

Test system: APTK organoids
Assay: APTK organoids incubated with UA, flow cytometry
Type: cell-based, murine
Text: Oral UA confers anti-tumor effects in murine colorectal cancer in a T-cell dependent manner. (FIG. 1A) Schematic representation of AOM model and different UA containing diets. (FIG. 1B) Representative images of swiss-roll sections from AOM-induced colon tumors. Scale bars are 2 mm (upper row) and 300 µm (lower row), respectively. (FIG. 1C) Tumor incidence of AOM-induced tumors receiving different UA-containing diets; n=4/5/5. Data are mean ±SD, depicting one of two independent experiments. *p < 0.05 by two-sided t-test. (FIG. 1D) Average lesion size of AOM-induced tumors receiving different UA-containing diets; n=4/5/5. Data are mean ±SD, depicting one of two independent experiments. *p < 0.05 by two-sided t-test. (FIG. 1E) Relative number of CD45^+CD3^+ T cells in colons of AOM-treated mice at week 24 (n>7, pooled from two independent experiments). Data are mean ± SD, **p < 0.01 by two-sided t-test. (FIG. 1F) Organoid treatment scheme. APTK-organoids were incubated in the presence of UA or DMSO for the indicated time points, prior to flow cytometric analysis. (FIG. 1G) Quantification of lysosome formation as assessed by lysotracker MFI via flow cytometry after 24 h incubation at the presence of various UA concentrations (n=5/4/4). Depicts one out of two indepdent experiments. Data are mean ± SD, *p < 0.05; **p < 0.01 as established via two-sided t-test. (FIG. 1H) Mitotracker signal of APTK organoids incubated for 24 h at the presence of UA in vitro (n=4/4/4) and antigen presentation via MHC-I molecules (I) after 48 h of treatment (n=4/4/4). Results from one out of two independent experiments are shown. Data are mean ± SD, statistical analysis was performed via two-sided t-test, *p < 0.05; **p < 0.01, ****p < 0.0001. (FIG. 1I) Upregulation of MHC-I by UA. (FIG. 1J) Experimental setup of oral UA administration in mice with established APTK-s.c. tumors. […] (FIG. 1L) End point tumor weight, (FIG. 1M) CD8+ T cell infiltration in APTK-s.c. tumors assessed by flow cytometry, normalising total number of CD8^+ T cells to tumor weight (n=7 per group). […]

[1] = increasing concentrations of UA, 24 h

**Q.** For O=c1oc2cc(O)ccc2c2ccc(O)cc12 [Urolithin A], which “MHC-I (antigen presentation)” value (48 h of treatment) is on record?
**A.** marked upregulation of MHC-I

**Q.** What about the MitoTracker staining [1] of the same compound?
**A.** loss of MitoTracker staining

**Q.** And the “formation of lysosomes (lysotracker MFI)” value [1]?
**A.** dose-dependent formation of lysosomes
